In patent US20040024005A1, “Methods and compositions for reducing the development of drug tolerance and/or physical dependence” (The Regents of the University of California, priority 2002, published 2004):

How the values were obtained:
[1] = test system: cAMP pathway; test: CRE-luciferase reporter assay of cAMP superactivation in MOR-expressing HEK293 cells; conditions: chronic 14 hours
Description: CRE-luciferase reporter expression assays. Cells were grown to confluency in 24 well plates. […] For chronic treatment experiments cells were given drug for 14 hours, rinsed 3 times in drug-free media to initiate a withdrawal phase, then given 2 μM forskolin for the 4 hour withdrawal phase, and luciferase activity measured. […] For all treatment conditions, cells were rinsed once in PBS immediately prior to luciferase measurement. 100 μl Cell Culture Lysis Reagent (Promega) was added to each well, a 20 μl cell lysate aliquot was transferred to an opaque 96 well plate, 100 μl substrate added per well using a Lucy 2 luminometer (Anthos), and light measurements collected. Data were exported to Microsoft Excel for compilation, and GraphPad Prism 3.0 for graphical display, non-linear regression curve fitting, and subsequent statistical analyses.
P<0.01, two-way ANOVA, Tukey's post test.

[2] = molecular target: T1, MOR-G protein coupling (Rattus norvegicus, UniProt P33535); test: [35S]-GTPγS binding autoradiography of brain sections (MOR-G protein coupling) after chronic treatment; format: in vivo; conditions: chronic DAMGO treatment as printed; brainstem P<0.001, thalamus P<0.05
T1 construct: from tissue; host or cells: brain sections of male Sprague-Dawley rats treated i.c.v
T1 sequence (P33535 whole entry): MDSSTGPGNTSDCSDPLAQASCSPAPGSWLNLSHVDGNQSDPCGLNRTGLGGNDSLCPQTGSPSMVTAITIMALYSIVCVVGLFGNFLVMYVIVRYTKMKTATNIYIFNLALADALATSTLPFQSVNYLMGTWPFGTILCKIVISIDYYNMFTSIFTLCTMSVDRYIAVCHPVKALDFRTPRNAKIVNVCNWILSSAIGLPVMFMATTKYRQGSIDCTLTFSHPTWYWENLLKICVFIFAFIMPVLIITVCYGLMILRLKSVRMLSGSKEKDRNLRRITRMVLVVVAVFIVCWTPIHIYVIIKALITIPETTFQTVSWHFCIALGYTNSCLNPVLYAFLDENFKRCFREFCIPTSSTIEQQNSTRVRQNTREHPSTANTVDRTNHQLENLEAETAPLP
Description: The binding assay was carried out as follows:
Slides containing brain sections were pre-incubated in buffer (50 mM Tris, 3 mM MgCl2, 0.2 mM EGTA, 100 mM NaCl, pH 7.4) for 10 min at room temperature.
The slides were then pre-incubated in the same buffer containing 2 mM GDP for 10 min at room temperature.
The slides were incubated in the same buffer as in step 2, additionally containing 50 pM [^35S]GTPγS for 90 min at room temperature.
The slides were then rinsed twice for 2-5 min in ice-cold buffer (the same buffer as in step 1) and dipped in cold distilled water.
The slides were thoroughly dried overnight, placed in X-ray cassettes, and exposed to BioMax MS™ film with an intensifying screen for 72 hr.
After exposure, the films were developed and scanned. The regional neuroanatomy of the rat was determined with the atlas of Paxinos and Watson, and brain areas in autoradiograms were quantitated using NIH Image software. Percent stimulation was calculated from optical densities (OD) according to the following equation:
Percent stimulation=(stimulated OD−basal OD)/basal OD×100%.

[3] = Tail-flick antinociception and tolerance, intracerebroventricular (i.c.v.) cannula; format: in vivo, rat
Excerpt: Intracerebroventricular (i.c.v.) cannula implantation. Rats were anesthetized with halothane and placed in a stereotaxic head holder. The scalp was shaved and scrubbed with alcohol. A midline sagittal incision was made, and the skull was exposed. The bone suture junctions Bregma and midline (lambda) were identified, then the location for cannula placement was marked 1 mm posterior to Bregma and 1.5 mm lateral (left) of the midline. A hole was drilled through the skull at the marked location to receive the cannula. Then, three additional holes were drilled around the first hole: anterior, lateral and posterior to the first hole, respectively, and about 3-4 mm apart from the first hole. These three holes were drilled partway through the skull to accommodate three small screws used to secure the cannula. An L-shaped cannula was inserted through the first hole in the skull to the stereotaxically correct depth 3.6 mm below the surface of the skull. The skull surface was completely dried, and the cannula and the implantation site covered with dental cement. Once the surgical procedures were done, the rat was removed from the stereotaxic device and returned to its cage and allowed 5 to 7 days to recover from surgery.
Implantation of osmotic mini-pump. After 5 to 7 days of recovery, a subcutaneous pocket in the midscapular area of the back of each rat, next to the implanted cannula (caudally), was created under light anesthesia with halothane to house the osmotic mini-pump. The subcutaneous pocket was created by first making a small incision, inserting a hemostat into the incision, and then opening and closing the hemostat to make a short subcutaneous tunnel. […] The wound was closed with sutures and the rat was returned to its cage.
Rats were tested for analgesia using the tail-flick latency test twice during the study period. The tests were conducted 30 min after the morning dose on days 1 and 5. Maximum Possible Effect (MPE) was calculated using the following equation: (Post-drug latency—baseline latency)/(cut-off latency—baseline latency)×100%.

[4] = molecular target: wild type MOR (Homo sapiens, UniProt P35372); conditions: cited from earlier work
Sequence of wild type MOR (P35372 whole entry): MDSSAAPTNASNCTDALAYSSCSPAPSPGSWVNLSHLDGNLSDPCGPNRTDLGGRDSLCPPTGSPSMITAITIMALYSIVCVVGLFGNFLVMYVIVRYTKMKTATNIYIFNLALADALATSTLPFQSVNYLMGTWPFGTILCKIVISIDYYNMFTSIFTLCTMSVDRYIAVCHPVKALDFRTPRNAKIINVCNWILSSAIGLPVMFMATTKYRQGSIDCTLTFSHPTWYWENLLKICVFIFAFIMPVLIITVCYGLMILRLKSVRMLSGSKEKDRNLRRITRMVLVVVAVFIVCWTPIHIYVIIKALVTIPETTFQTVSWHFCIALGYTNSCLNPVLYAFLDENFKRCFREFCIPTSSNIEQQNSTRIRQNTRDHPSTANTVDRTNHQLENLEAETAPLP

[5] = Naloxone-precipitated withdrawal after i.c.v. treatment (jumping, shaking, chewing, weight loss); conditions: naloxone 3 mg/kg i.p.; for withdrawal symptoms after naloxone (jumping, shaking, chewing, weight loss): i.c.v. twice daily for 5 days, morphine 50 nmoles, DAMGO 1.0 nmole; for withdrawal behaviours after naloxone: 20-min period
Description: (§1) On day 7, rats were injected intraperitoneally with 3 mg/kg naloxone and placed, individually, in Plexiglass cylinders. The rats were monitored for jumping, shaking, and chewing, and the number of occurrences of each type of behavior over a 20-min period was recorded immediately following the naloxone injection. In addition, the rats were weighed before naloxone injection and after the 20 mins of monitoring indicated above.
as §1, with “5, 30 mins following the second drug administration,” for “7,”, “following” for “after”, “20-min observation period” for “20 mins of monitoring”

[6] = molecular target: T2, HA-B2AR (beta-2 adrenergic receptor) (Homo sapiens, UniProt P07550); test: B2AR endocytosis in HEK 293 cells expressing FLAG-MOR and HA-B2AR; format: cell-based; conditions: 5 μM each agonist, 30 minutes
T2 construct: expressed in transfected cells
T2 sequence (P07550 whole entry, species assumed): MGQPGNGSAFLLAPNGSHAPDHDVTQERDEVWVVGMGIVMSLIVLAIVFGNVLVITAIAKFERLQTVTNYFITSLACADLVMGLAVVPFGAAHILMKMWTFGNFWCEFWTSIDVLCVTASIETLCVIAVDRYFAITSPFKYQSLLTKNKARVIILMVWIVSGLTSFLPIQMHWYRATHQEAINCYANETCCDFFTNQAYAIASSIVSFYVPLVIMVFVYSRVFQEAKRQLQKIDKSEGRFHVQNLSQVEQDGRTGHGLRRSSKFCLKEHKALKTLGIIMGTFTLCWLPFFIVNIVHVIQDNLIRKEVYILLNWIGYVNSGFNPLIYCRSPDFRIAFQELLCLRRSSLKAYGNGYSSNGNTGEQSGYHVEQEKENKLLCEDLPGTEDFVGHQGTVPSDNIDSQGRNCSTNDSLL
Description: Cell culture and immunocytochemistry. Human Embryonic Kidney (HEK) 293 cells (American Type Culture Collection) were grown in DMEM (Gibco BRL) supplemented with 10% Fetal Bovine Serum (Hyclone). Mu opioid receptor and CRE-Luciferase (Promega) constructs were stably transfected using calcium phosphate co-precipitation, with single colonies chosen and propagated in the presence of selection-containing media. For immunocytochemistry, cells were grown on poly-lysine coated coverslips and incubated with 3.5 μg/ml M1 anti-FLAG and/or 3.5 μg/ml HA-11 antibody (Covance) for 30 minutes. Cells were then treated with agonist as specified, fixed in 4% formaldehyde in PBS, permeabilized in 0.1% Triton X-100 in blotto, and stained. Cells stained for only one receptor type were stained with Texas red-conjugated Donkey anti-Mouse antibody (Jackson Immunoresearch). Cells that were stained for both FLAG and HA tagged receptors simultaneously were first incubated with rabbit anti-IgG2b antibodies (Zymed) followed by staining with Texas red Donkey anti Mouse antibody (Jackson Immunoresearch) and FITC-conjugated Goat anti Mouse IgG1, antibody (Boehringer). Images were acquired using a custom-configured inverted microscope (Prairie Systems, Madison, Wis.) with a Zeiss 63× oil objective, or a Zeiss confocal with a 60× oil objective. […]

[7] = molecular target: T3, FLAG-MOR (mu opioid receptor) (Mus musculus, UniProt P42866); test: MOR endocytosis by antibody feeding and immunocytochemistry in HEK 293 cells; format: cell-based
T3 construct: expressed in transfected cells
T3 sequence (P42866 whole entry): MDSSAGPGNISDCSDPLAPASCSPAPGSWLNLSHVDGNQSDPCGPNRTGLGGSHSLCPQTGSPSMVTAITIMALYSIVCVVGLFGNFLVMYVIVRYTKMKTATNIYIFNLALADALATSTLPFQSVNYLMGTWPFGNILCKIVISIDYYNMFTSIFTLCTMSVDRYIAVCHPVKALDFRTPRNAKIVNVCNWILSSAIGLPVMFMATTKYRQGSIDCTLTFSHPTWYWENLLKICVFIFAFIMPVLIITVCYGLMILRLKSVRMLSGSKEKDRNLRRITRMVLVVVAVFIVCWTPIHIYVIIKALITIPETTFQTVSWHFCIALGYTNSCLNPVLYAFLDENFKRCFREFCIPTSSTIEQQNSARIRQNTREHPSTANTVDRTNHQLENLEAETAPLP
Description: Cell culture and immunocytochemistry. Human Embryonic Kidney (HEK) 293 cells (American Type Culture Collection) were grown in DMEM (Gibco BRL) supplemented with 10% Fetal Bovine Serum (Hyclone). Mu opioid receptor and CRE-Luciferase (Promega) constructs were stably transfected using calcium phosphate co-precipitation, with single colonies chosen and propagated in the presence of selection-containing media. For immunocytochemistry, cells were grown on poly-lysine coated coverslips and incubated with 3.5 μg/ml M1 anti-FLAG and/or 3.5 μg/ml HA-11 antibody (Covance) for 30 minutes. Cells were then treated with agonist as specified, fixed in 4% formaldehyde in PBS, permeabilized in 0.1% Triton X-100 in blotto, and stained. Cells stained for only one receptor type were stained with Texas red-conjugated Donkey anti-Mouse antibody (Jackson Immunoresearch). Cells that were stained for both FLAG and HA tagged receptors simultaneously were first incubated with rabbit anti-IgG2b antibodies (Zymed) followed by staining with Texas red Donkey anti Mouse antibody (Jackson Immunoresearch) and FITC-conjugated Goat anti Mouse IgG1, antibody (Boehringer). Images were acquired using a custom-configured inverted microscope (Prairie Systems, Madison, Wis.) with a Zeiss 63× oil objective, or a Zeiss confocal with a 60× oil objective.
We next assessed whether the heterodimerization of MOR and D MOR could affect the trafficking of the receptors using immunocytochemical methods. […] Control cell lines that expressed only one of the receptors, either FLAG-MOR or HA-D MOR, were treated analogously. All cells were then permeabilized and stained with fluorescently conjugated secondary antibodies. In this way, only receptors that were initially on the cell surface were detected.
HEK 293 cells were generated that stably expressed both the FLAG-tagged MOR and an HA-tagged B2AR. The cells were incubated with antibodies to both epitope tags to label cell surface receptors, treated with various agonists or agonists combinations, then stained for both receptors. […] All treatments were for 30 minutes with 5 μM each agonist.

[8] = Radiant heat tail-flick antinociception, intrathecal (IT) catheter; format: in vivo, rat
Excerpt: Animals. Male Sprague-Dawley rats (250-300 g, Simonsen Laboratories, Inc. Gilroy, Calif.) were housed individually in temperature-controlled rooms with a 12-hr light/dark cycle. Food and water were available ad libitum. All procedures used in this study were in agreement with the NIH Guide for the Care and Use of Laboratory Animals and were approved by the Animal Care and Use Committee at Gallo Center of the University of California, San Francisco.
Preparation and implantation of intrathecal (IT) catheters. […] Two types of catheters were prepared depending on the regimen for test drug delivery. […] For catheter implantation, rats were anesthetized with isoflurane and placed on a stereotaxic device with the head flexed forward. The PE-10 catheter was inserted into the spinal subarachnoid space through an incision in the atlanto-occipital membrane and advanced caudally extending to the lumbar enlargement of the spinal cord. After implantation of IT catheters, rats were returned to their home cages and allowed 7 days to recover from surgery.
Drug treatments. […] The test drug was delivered via either single injection or chronic infusion. […] DAMGO or saline was injected through one arm of the Y-shape catheter at 15 μl volume.
Antinociception test. Rats were tested for antinociception using the radiant heat tail-flick procedure. The light intensity was adjusted to achieve base-line latencies of 1.5 to 2 seconds; a maximum latency of 6 seconds was set as the cut-off time to minimize damage to the tail. […] Antinociception was tested by tail-flick 30 min after the afternoon administration. The behavioral data of antinociception were compared and statistically analyzed by two-way analysis of variance followed by Bonferroni post-test, where P<0.05 was considered significant.
(§2) Rats (4-6 per group) were implanted with an intrathecal catheter through which either an acute injection of agonist could be given or chronic drug could be administered by an osmotic mini pump.
Rats were implanted with a Y-shaped intrathecal catheter. […] Either a sub-analgesic, sub-endocytic dose of DAMGO (0.01 nmoles in 15 μl) or an equal volume of saline was administered twice daily through the other arm of the catheter. […] Analgesia was measured by tail flick latency test once per day 30 minutes following the second injection.

[9] = molecular target: T4, MORs in the lamina II neurons of the spinal cord (Rattus norvegicus, UniProt P33535); test: Immunohistochemical staining of MORs in lamina II spinal cord neurons after IT drug; format: in vivo
T4 construct: from tissue; host or cells: spinal cord (lamina II, dorsal horn) of male Sprague-Dawley rats dosed intrathecally
T4 sequence (P33535 whole entry): as the sequence (P33535 whole entry) above
Description: Immunohistochemistry. The rats were anesthetized with intramuscular ketamine hydrochloride (80 mg/kg) and xylazine hydrochloride (12 mg/kg) and perfused with 4% paraformaldehyde in 0.1 M phosphate buffer immediately following the tail-flick test at day 7 following pump implantation. The segment of spinal cord proximal to the tip of the catheter was dissected out, post-fixed overnight in the same fixative and then transferred to a 30% sucrose buffer solution. […] The sections were then washed and mounted on slides. MOR distribution was examined with a Zeiss confocal microscope using a 60× oil immersion objective. For quantification, slides from at least two different rats for each condition were stained by one researcher and encoded and vesicles were counted blind by a second individual from the middle section of at least 8 cells per condition. Following compilation of vesicle counts, the code was broken.
as §2
A very low dose of DAMGO was chosen to avoid confusion due to DAMGO-induced endocytosis.
To examine this possibility, we examined the distribution of the MORs in the spinal cord of the rats from the behavioral experiment.

[10] = molecular target: T5, mu-opioid receptor (Rattus norvegicus, UniProt P33535); test: MOR distribution in brain by immunohistochemistry after acute and chronic i.c.v. treatment; format: in vivo; conditions: i.c.v. acute or chronic (twice a day, 5 days); morphine 50 nmoles, DAMGO 1 nmole
T5 construct: from tissue; host or cells: brain sections of male Sprague-Dawley rats treated i.c.v
T5 sequence (P33535 whole entry): as above
Description: For the acute treatment, animals were sacrificed 30 mins following the first injection. For the chronic treatment, drugs were given twice a day: morning and afternoon, in 5 μl volume for 5 days, and the animals were sacrificed 30 mins following the final injection. Rats were deeply anesthetized with halothane and perfused with 4% paraformaldehyde in 0.1 M phosphate buffer. The brains were dissected out and post-fixed overnight in the same fixative and then transferred to a 30% sucrose buffer. Coronal sections (30 um thick) were cut on cryostat at −18° C., preincubated in PBT solution (0.1 M phosphate buffer, 2% BSA, and 0.2% Triton X-100) for 30 min, blocked in 5% normal goat serum in PBT solution for another 30 min, and then incubated with a rabbit anti-mu opioid receptor antibody at 1:5000 and mouse and NeuN antibody (which recognizes the neuronal-specific protein NeuN) at 1:5000 overnight at 4° C. […] The sections were then washed and mounted onto slides. The mu-opioid receptors and NeuN were visualized using a Zeiss confocal microscope with a 60× oil immersion objective.

[11] = HEK 293 cells expressing FLAG-MOR and HA-B2AR, 5 μM each agonist, 30 minutes
[12] = acute IT injection, 30 min after, DAMGO 0.3 nmoles, morphine 30 nmoles, p<0.001
[13] = chronic i.c.v. infusion at 25 or 75 nmoles/hr for 7 days

C[C@@H](NC(=O)[C@@H](N)Cc1ccc(O)cc1)C(=O)NCC(=O)N(C)[C@@H](Cc1ccccc1)C(=O)NCCO [DAMGO]
superactivation of the cAMP pathway relative to untreated cells ([1]; 10 nM alone): little superactivation
superactivation of the cAMP pathway relative to untreated cells ([1]; 1 μM, 100 nM, 10 nM or 1 nM): superactivation in a dose dependent manner
MOR-G protein coupling in the brainstem and thalamus [2]: reduction MOR-G protein coupling
reduction in antinociception (percent MPE) after 5-day treatment ([3]; i.c.v. 1 nmole twice a day for 5 days, day 5 vs day 1): much smaller reduction in antinociception
MOR endocytosis [4]: promotes robust endocytosis of the MOR
withdrawal symptoms after naloxone (jumping, shaking, chewing, weight loss) [5]: no jumping and less shaking, chewing, and weight loss
B2AR endocytosis [6]: not B2AR
MOR endocytosis [7, 11]: promoted endocytosis of the MOR
MOR endocytosis ([7]; HEK 293 cells expressing only MOR, 5 μM, 30 minutes (saturating dose)): robust endocytosis of receptor
MOR endocytosis ([7]; HEK 293 cells expressing only MOR, non-saturating DAMGO 100 nM alone): significantly less receptor endocytosis
analgesia (tail flick latency) ([8]; 0.01 nmoles IT twice daily, saline from mini pump, 7 days): produced no analgesia
analgesia (tail flick latency) ([8]; acute IT injection, 30 min after, 0.01 nmoles, p>0.05): no analgesic effect
analgesia (tail flick latency) [8, 12]: produced significant analgesia
MOR endocytosis in lamina II neurons ([9]; acute IT, 0.01 nmoles alone): nor detectable MOR endocytosis
MOR distribution / endocytosis in lamina II neurons ([9]; acute IT, DAMGO 0.3 nmoles, equi-analgesic morphine 30 nmoles): pronounced receptor endocytosis
distribution of MORs in spinal cord neurons ([9]; day 7 of chronic IT treatment, morphine mini pump and/or DAMGO 0.01 nmoles twice daily): indistinguishable from animals given only saline
promotes substantial MOR endocytosis in brain (striatum, globus pallidus, ventral tegumental area) [10]: does

CC(C)NCC(O)c1ccc(O)c(O)c1 (stereo not drawn) [isoproterenol]
MOR endocytosis [7, 11]: not MOR

CN1CC[C@]23c4c5ccc(O)c4O[C@H]2[C@@H](O)C=C[C@H]3[C@H]1C5 [morphine, (5α,6α)-7,8-didehydro-4,5-epoxy-17-methylmorphinan-3,6-diol]
duration of significant antinociceptive effect [3, 13]: 3 to 4 days
tolerance [3, 13]: causes tolerance in a dose-dependent manner
reduction in antinociceptive effect (percent MPE) after 5-day treatment ([3]; i.c.v. 50 nmoles twice a day for 5 days, day 5 vs day 1): 30-40%
withdrawal behaviours after naloxone ([5]; i.c.v. 25 nmoles/hr for 7 days): increases in shaking and chewing
withdrawal behaviours after naloxone ([5]; i.c.v. 75 nmoles/hr for 7 days): increases in jumping, shaking, and chewing
weight loss after naloxone ([5]; i.c.v. 25 or 75 nmoles/hr for 7 days): dose-dependent weight loss
withdrawal symptoms after naloxone (jumping, shaking, chewing, weight loss) [5]: produced jumping, shaking, and chewing and weight loss
time to development of tolerance ([8]; Y-shaped IT catheter, chronic morphine mini pump plus twice daily saline injections): ≤ 4 days
antinociception early in the experiment / day one ([8]; Y-shaped IT catheter, chronic morphine mini pump plus twice daily saline or DAMGO 0.01 nmoles): pronounced antinociception early in the experiment
analgesia (tail flick latency) [8, 12]: produced significant analgesia
loss of antinociception (tolerance) ([8]; chronic IT infusion at 2, 6, or 18 nmoles/hr, 7 days): eventually lost completely over 7 days
antinociceptive effect (tail flick latency) ([8]; chronic IT infusion at 2, 6, or 18 nmoles/hr, early days): significant antinociceptive effect for the first few days
